For data set [1], the system named is chickweed (Stellaria media). The data set can be described thus: Postemergence herbicidal activity. The class given is in vivo. To be noted: for inhibition at 125 ppm / pest or weed control at 125 ppm / pest or weed control at 250 ppm: Stellaria media, post-emergence, 336 h; for inhibition at 125 ppm: Table 2, read-out: POSTMERGENCE HERBICIDAL ACTIVITY % CONTROL STEME; for pest or weed control at 125 ppm / pest or weed control at 250 ppm: read-out: Post-emergent % Control STEME. In outline: (§1)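 Plants are raised from seed under greenhouse conditions until the first or second true leaf appears. They are then sprayed with test solutions at known concentrations, where 1 ppm corresponds to roughly 1 g/Ha. Two weeks later, injury is rated by eye from 0 to 100%.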

Data set [2] has as its system cocklebur (Xanthium strumarium). The data set can be described thus: Postemergence herbicidal activity. The following applies: Xanthium strumarium, post-emergence, 336 h; for inhibition at 125 ppm: Table 2, read-out: POSTMERGENCE HERBICIDAL ACTIVITY % CONTROL XANST; for pest or weed control at 125 ppm / pest or weed control at 250 ppm: read-out: Post-emergent % Control XANST; for pest or weed control at 250 ppm: rate 250 ppm. The class given is in vivo. The gist of the method: as §1

Data set [3] concerns wild buckwheat (Polygonum convolvulus). Briefly: Postemergence herbicidal activity. The class given is in vivo. To be noted: for inhibition at 125 ppm / pest or weed control at 125 ppm / pest or weed control at 250 ppm: Fallopia convolvulus, post-emergence, 336 h; for inhibition at 125 ppm: Table 2, read-out: POSTMERGENCE HERBICIDAL ACTIVITY % CONTROL POLCO; for pest or weed control at 125 ppm / pest or weed control at 250 ppm: read-out: Post-emergent % Control POLCO. In outline: as §1

The test system of data set [4] is morningglory (Ipomoea hederacea). Briefly: Preemergence herbicidal activity. The class given is in vivo. The following applies: Ipomoea, 504 h, read-out: % Control IPOHE; for pest or weed control at 560 ppm: rate 560 ppm. In outline:
(§2)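 Test compounds in acetone/DMSO were diluted in water with 0.1% Tween 155 and sprayed onto the soil surface of freshly seeded pots (loam/sand 70:30, pH about 8.1). Plants grew in a greenhouse at about 23-29° C day under a 15 h photoperiod. Injury was scored visually after 3 weeks versus untreated plants, 0-100%.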

Data set [5] relates to pigweed (Amaranthus retroflexus). Briefly: Preemergence herbicidal activity. The class given is in vivo. To be noted: Amaranthus retroflexus, 504 h; for pest or weed control at 280 ppm / pest or weed control at 560 ppm: read-out: % Control AMARE; for inhibition at 35 g/ha: pre-emergence, Table 7, rate 35 g/Ha; for pest or weed control at 560 ppm: rate 560 ppm. The gist of the method: as §2

For data set [6], the system named is velvetleaf (Abutilon theophrasti). The data set can be described thus: Preemergence herbicidal activity. The class given is in vivo. The following applies: Abutilon theophrasti, 504 h; for pest or weed control at 280 ppm / pest or weed control at 560 ppm: read-out: % Control ABUTH; for inhibition at 35 g/ha: pre-emergence, Table 7, rate 35 g/Ha; for pest or weed control at 560 ppm: rate 560 ppm. The gist of the method:
as §2

The mark [7] stands for this setting: Table 1, rate 125 ppm, visual, after 2 weeks.
Where [8] appears, read: Table 6 (headed Post-emergent; text: preemergence), rate 280 ppm, after 3 weeks.
[9] abbreviates: after 3 weeks, read-out: PREEMERGENCE HERBICIDAL ACTIVITY % CONTROL AMARE.
[10] abbreviates: after 3 weeks, read-out: PREEMERGENCE HERBICIDAL ACTIVITY % CONTROL ABUTH.
The mark [11] stands for this setting: Table 1, rate 250 ppm, visual, after 2 weeks.
The mark [12] stands for this setting: Table 6 (headed Post-emergent; text: preemergence), after 3 weeks.

SMILES strings stand for the structures. Like-named read-outs stand apart in the source and are kept apart here.

Turning to `Nc1cc(Cl)nc(C(=O)O)c1Cl` [Compound 1, 4-Amino-3,6-dichloropyridine-2-carboxylic acid], the inhibition at 125 ppm stood at 90% in data set [1] (read-out: PO[…] % CONTROL STEME, rate 125 ppm, after 2 weeks); 100% in data set [2] (read-out: PO[…] % CONTROL XANST, rate 125 ppm, after 2 weeks); 100% in data set [3] (read-out: PO[…] % CONTROL POLCO, rate 125 ppm, after 2 weeks). Also, the pest or weed control at 125 ppm came to 100% in data set [1], 95% in data set [2] and 100% in data set [3]. Also, the pest or weed control at 280 ppm in data set [4], in data set [5] and in data set [6] was 100% in each case. Moreover, the inhibition at 35 g/ha in data set [5] (read-out: PR[…] % CONTROL AMARE, after 3 weeks) came to 88%; in data set [6] (read-out: PR[…] % CONTROL ABUTH, after 3 weeks), 95%.
For the molecule `COC(=O)c1nc(Cl)cc(N)c1Cl` [Compound 3, methyl 4-amino-3,6-dichloropyridine-2-carboxylate], the melting point was 134 to 135 °C. The pest or weed control at 125 ppm in data set [1] (setting [7]) is 100%. The pest or weed control at 125 ppm in data set [2] (setting [7]) is 100%. In addition, the pest or weed control at 125 ppm in data set [3] (setting [7]) was found to be 100%. Further, the pest or weed control at 280 ppm in data set [4] (setting [8]) came to 100%. In data set [5] (setting [8]), the pest or weed control at 280 ppm was 100%. Besides, in data set [5] (setting [9]), the inhibition at 35 g/ha was 90%. Further, the pest or weed control at 280 ppm in data set [6] (setting [8]) was 100%. Besides, the inhibition at 35 g/ha in data set [6] (setting [10]) stood at 95%.
The molecule `CCOC(=O)c1nc(Cl)cc(N)c1Cl` [Compound 4, ethyl 4-amino-3,6-dichloropyridine-2-carboxylate] came in with a melting point of 98 to 99 °C. Besides, in data set [1] (setting [7]), the pest or weed control at 125 ppm came out at 100%. Also, the inhibition at 125 ppm in data set [1] (rate 125 ppm, after 2 weeks) turned out to be 70%. In addition, the pest or weed control at 125 ppm in data set [2] (setting [7]) was found to be 100%. Further, the inhibition at 125 ppm in data set [2] (rate 125 ppm, after 2 weeks) was 100%. Further, in data set [3] (setting [7]), the pest or weed control at 125 ppm was 100%. In addition, in data set [3] (rate 125 ppm, after 2 weeks), the inhibition at 125 ppm stood at 100%. Also, in data set [4] (setting [8]), the pest or weed control at 280 ppm turned out to be 100%. In data set [5] (setting [8]), the pest or weed control at 280 ppm was found to be 100%. Further, the pest or weed control at 280 ppm in data set [6] (setting [8]) worked out at 100%.
For the molecule `Nc1cc(Br)nc(C(=O)O)c1Cl` [Compound 14, 4-Amino-6-bromo-3-chloropyridine-2-carboxylic acid], the melting point was 182 to 183 °C. The pest or weed control at 250 ppm in data set [1] (setting [11]) turned out to be 90%. In data set [1] (rate 125 ppm, after 2 weeks), the inhibition at 125 ppm came out at 65%. For the same molecule, in data set [1] (Table 5, rate 250 ppm), the “Post-emergent Evaluation - % control STEME” value was found to be 70%. The pest or weed control at 250 ppm in data set [2] (Table 1, visual, after 2 weeks) amounted to 85%. In data set [2] (rate 125 ppm, after 2 weeks), the inhibition at 125 ppm stood at 100%. In addition, in data set [3] (setting [11]), the pest or weed control at 250 ppm amounted to 50%. Also, in data set [3] (rate 125 ppm, after 2 weeks), the inhibition at 125 ppm stood at 100%. Moreover, in data set [3] (Table 5, rate 250 ppm), the “Post-emergent Evaluation - % control POLCO” value is on record as 90%. The pest or weed control at 560 ppm in data set [4] (setting [12]) came out at 100%. Moreover, the pest or weed control at 560 ppm in data set [5] (setting [12]) stood at 90%. Further, the inhibition at 35 g/ha in data set [5] (setting [9]) worked out at 100%. Moreover, the pest or weed control at 560 ppm in data set [6] (setting [12]) was 100%. Also, in data set [6] (setting [10]), the inhibition at 35 g/ha was determined as 100%.
For `Nc1c(F)c(Cl)nc(C(=O)O)c1Cl` [Compound 19, 4-Amino-3,6-dichloro-5-fluoropyridine-2-carboxylic acid], the melting point is 214 °C (dec.). Also, the pest or weed control at 125 ppm in data set [1] (setting [7]) was found to be 95%. Besides, in data set [1] (rate 125 ppm, after 2 weeks), the inhibition at 125 ppm was 60%. The pest or weed control at 125 ppm in data set [2] (setting [7]) stood at 95%. For the same molecule, in data set [2] (rate 125 ppm, after 2 weeks), the inhibition at 125 ppm is 95%. The pest or weed control at 125 ppm in data set [3] (setting [7]) is 100%. For the same molecule, the inhibition at 125 ppm in data set [3] (rate 125 ppm, after 2 weeks) worked out at 100%. In addition, the pest or weed control at 560 ppm in data set [4] (setting [12]) came to 100%. Also, in data set [5] (setting [12]), the pest or weed control at 560 ppm stood at 100%. Besides, in data set [6] (setting [12]), the pest or weed control at 560 ppm amounted to 100%.
In turn, `COc1c(C(=O)O)nc(Br)c(Cl)c1N` [Compound 42, 4-Amino-6-bromo-5-chloro-3-methoxypyridine-2-carboxylic acid] yielded a melting point of 154 to 156 °C. The pest or weed control at 250 ppm in data set [1] (setting [11]) was 90%. In data set [2] (Table 1, visual, after 2 weeks), the pest or weed control at 250 ppm amounted to 85%. The pest or weed control at 250 ppm in data set [3] (setting [11]) turned out to be 90%. In addition, the pest or weed control at 560 ppm in data set [4] (setting [12]) stood at 100%. In addition, the pest or weed control at 560 ppm in data set [5] (setting [12]) is 100%. In data set [5] (setting [9]), the inhibition at 35 g/ha is 60%. The pest or weed control at 560 ppm in data set [6] (setting [12]) came out at 100%. For the same molecule, the inhibition at 35 g/ha in data set [6] (setting [10]) was 80%.

For orientation: melting point means the temperature, or range, at which the solid turns liquid.

The record behind these values is patent US20010047099A1, “4-aminopicolinates and their use as herbicides” (priority 2000, published 2001).
